From paper PMC9196127, “Novel STAT3 Inhibitors Targeting STAT3 Dimerization by Binding to the STAT3 SH2 Domain” (Frontiers in Pharmacology, 2022)

Target: STAT3 (Homo sapiens, UniProt P40763)
Experiment: Fluorescence polarization (FP) competition assay with 5-FLU-GpYLPQTV-NH2
Format: binding
Design: purchased Abcam ab43618
Conditions: FP assay
Protocol: The FP assay was conducted as described in [Zhao et al. (2010]). The fluorochrome-labeled phosphopeptide, 5-FLU-G (pY)LPQTV-NH2, was synthesized by ProImmune (London, United Kingdom) with over 95% purity as a probe. The recombinant human STAT3 protein was purchased from Abcam (ab43618). To obtain an inhibitory effect, drugs (0–1,000 μM) and 150 nM human STAT3 were incubated at 37°C in an assay buffer (50 mm NaCl, 10 mm HEPES, 1 mm EDTA, and 0.01% Triton X-100) for 1 h prior to co-incubation with 10 nM of the fluorochrome-labeled peptide at RT for 30 min. The plate was sealed under nitrogen and left at RT for 72 h. The fluorescence polarization was then analyzed by the BioTek Synergy™ Neo2 Multi-Mode Microplate Reader (BioTek Instruments, Winooski, VT, United States). Binding curves were fit to a log-logistic function using the R package drc. Ki was determined from the resulting IC50 using the Cheng–Prusoff equation and the Kd for fluorochrome-labeled peptide binding to STAT3, Ki = IC50/(([L])/Kd) +1. […]
FIGURE 4 Fluorescence polarization (FP) assays identified 323s as direct STAT3 SH2 domain binders. (A) Fluorescence polarization (FP) analysis of the binding of 10 nM GpYLTQTV-NH2and 150 nM human STAT3 protein with increasing concentration of drugs. […]

Chain of STAT3 (P40763 whole entry): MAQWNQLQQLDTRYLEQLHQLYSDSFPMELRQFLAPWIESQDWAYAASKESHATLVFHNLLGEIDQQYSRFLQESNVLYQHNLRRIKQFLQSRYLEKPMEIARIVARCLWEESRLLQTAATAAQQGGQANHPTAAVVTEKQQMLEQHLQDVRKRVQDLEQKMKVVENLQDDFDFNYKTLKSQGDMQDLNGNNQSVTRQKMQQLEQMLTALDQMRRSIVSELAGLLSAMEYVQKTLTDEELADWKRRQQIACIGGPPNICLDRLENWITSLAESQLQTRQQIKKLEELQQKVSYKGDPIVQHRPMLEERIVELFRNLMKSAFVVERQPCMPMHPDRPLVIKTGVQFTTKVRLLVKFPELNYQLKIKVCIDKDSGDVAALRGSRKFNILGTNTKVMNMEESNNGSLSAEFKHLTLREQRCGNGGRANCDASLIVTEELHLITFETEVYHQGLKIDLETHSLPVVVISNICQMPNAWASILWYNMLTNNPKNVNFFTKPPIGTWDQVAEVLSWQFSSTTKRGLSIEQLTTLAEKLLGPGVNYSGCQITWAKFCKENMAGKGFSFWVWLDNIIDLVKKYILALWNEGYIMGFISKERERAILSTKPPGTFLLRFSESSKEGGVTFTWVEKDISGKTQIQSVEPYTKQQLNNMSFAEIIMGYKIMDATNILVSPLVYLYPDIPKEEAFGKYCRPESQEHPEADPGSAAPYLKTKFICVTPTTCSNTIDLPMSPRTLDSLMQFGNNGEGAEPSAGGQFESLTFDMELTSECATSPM

| SMILES | potency to disrupt STAT3/GpYLPQTV relative to S3I-201 |
| --- | --- |
| C[C@@H]1CCC(c2cc3c4c(cncc4c2)[C@@H](C)C3)=C1C=O [323–2, (15S,2R)-delavatine A] | around five-fold more potently than S3I-201 |
| C[C@@H]1CCC(c2cc3c4c(cncc4c2)[C@H](C)C3)=C1C=O [323–1, (15R,2R)-delavatine A] | around five-fold more potently than S3I-201 |
